In ChEMBL document CHEMBL1151816, “Cytotoxic spirostane-type saponins from the roots of Chlorophytum borivilianum” (J Nat Prod, 2009) one finds Activity and IC50 data, which are given here for 2 molecules.

Activity calls are given as the source filed them. The rule behind the calls is not given here.

A word on the IC50: it is the point on the concentration scale where inhibition reaches its midpoint. Read a high IC50 as lower potency.

Holding throughout (assay type): functional, cell-based
In experiment [1] the test system is HCT-116. Description: Cytotoxicity against human HCT116 cells at 0.38 uM after 4 days by MTT assay.
Experiment [2] has as its system HT-29. Description: Cytotoxicity against human HT-29 cells at 2.6 uM after 4 days by MTT assay. (Tetrazolium assays rely on reduction of a dye to a coloured formazan, in cell work by metabolically active cells.)
Experiment [3] concerns HCT-116. As to the kind of experiment: Cytotoxicity against human HCT116 cells after 4 days by MTT assay. The settings on record: HCT-116, 96 h.

`C=C1CC[C@@]2(OC1)O[C@H]1C[C@H]3[C@@H]4CC[C@H]5C[C@@H](O[C@@H]6O[C@H](CO)[C@H](O[C@@H]7O[C@H](CO)[C@@H](O)[C@H](O[C@@H]8OC[C@@H](O)[C@H](O)[C@H]8O)[C@H]7O[C@@H]7O[C@H](CO)[C@@H](O)[C@H](O)[C@H]7O)[C@H](O)[C@H]6O)[C@H](O)C[C@]5(C)[C@H]4CC[C@]3(C)[C@H]1[C@@H]2C`: the outcome in experiment [1] and in experiment [2] was Active.

`CC(=O)O[C@H]1C(=O)[C@@]2(C)[C@H]([C@H](OC(=O)c3ccccc3)[C@]3(O)C[C@H](OC(=O)[C@H](O)[C@@H](NC(=O)c4ccccc4)c4ccccc4)C(C)=C1C3(C)C)[C@]1(OC(C)=O)CO[C@@H]1C[C@@H]2O` [PACLITAXEL] displayed an IC50 in experiment [3] of 1.1 nM.
